From US12139488B2, “Pyrido[3,2-d]pyrimidine compounds uses thereof for treating a proliferative disease” (Universite de Montreal, priority 2021, dated 2024)
Where two headings read alike, the source gives them in different places.

Columns and labels:
Format in all cases: cell-based, human
[1] = tested on: pERK in Mewo cells (NF1 LOF); test: Phospho-ERK inhibition (AlphaLISA), Mewo; settings: for Mewo pERK % Ymin: value in parentheses
Description: (§1) All cancer cell lines (A375, A101D, A2058, RKO, HT29 SK-MEL 30, IPC298, HepG2, HCT-116, Lovo, SWV620, SW480, NCI-H358, NCI-H2122, Calu-6, NCIH2087, NCIH1755, NCIH1666 and Mewo) were obtained from ATCC and cultured in RPMI-1640 medium (Gibco) supplemented with 5% heat inactivated fetal bovine serum (FBS, Wisent) at 37° C. under 5% CO2. Cells were maintained in T175 flasks (Greiner). They were passaged by removing the culture medium, washing once in 10 mL of room temperature Phosphate Buffered Saline (PBS; Wisent) and incubating at 37° C. with 2 mL of 0.05% Trypsin (Thermo-Fisher). Trypsin was then inactivated by adding complete growth medium and the cells were then replated in a T175 culture dish at the appropriate dilution. All cell lines were routinely tested for mycoplasma contamination. Tissue type and mutational status of each cell line can be found in Table B.
(§2) AlphaLISA® SureFire® Ultra™ p-ERK 1/2 (Thr202/Tyr204) analysis was conducted on cells plated in 100 μL of complete RPMI-1640 growth medium in 96-well flat-bottomed transparent dishes (Costar) at a density indicated in Table C. Cells were maintained overnight at 37° C. under 5% CO2 before treatment with compounds' dilution series for one hour. The cell density in cells/cm^2 corresponds to cell number divided by the area of one well of a 96-well plate ([…]).
(§3) In a dilution series 100 μL/well of test substance dilution prepared in complete RPMI-1640 growth media was added to the cells. The dilution series is selected so that ten concentrations cover a range from 10 μM to 0.33 nM. If necessary the initial concentration of 10 μM is increased to 100 μM or lowered to 1 μM (as in the case of A375 and H1666 cells, which are generally more sensitive to the compounds) and further dilution is carried out accordingly. The final concentration of DMSO in the assay is set at 0.5%.
(§4) After treatment, media was removed and cells were lysed in 50 μL of 1× AlphaScreen Ultra Lysis Buffer (Perkin Elmer). The AlphaLISA® SureFire® Ultra™ p-ERK 1/2 (Thr202/Tyr2O4) (PerkinElmer) reactions were performed with 5 μL of cell lysate according to the manufacturer's specifications in 384-well proxyplates (Perkin Elmer) followed by overnight incubation of the reactions at room temperature in a humidified chamber. After completion of the reactions, the signals were recorded on an EnVision plate reader (Perkin Elmer) using built in AlphaLISA® settings.
(§5) The effect of each compound dilution on the pERK signal was expressed in % inhibition and calculated as follows. An internal 100% inhibition control ([…] trametinib, cat #HY-10999; MedChem Express; CAS #871700-17-3) was included in each plate and used as a measure of pERK background. First, the value obtained for trametinib was subtracted from each data point. The average of DMSO (vehicle) controls (set as 0% inhibition) was established and used to calculate % inhibition: % inhibition=100*(1-((pERK signalcompound)/(pERK signalDMSO)))
(§6) The ability of each compound to inhibit pERK signal was expressed as an IC50 value obtained by plotting the inhibition values for each data point of a dilution series and fitting the obtained curves using a log(agonist) versus response-variable slope (four parameters) function using GraphPadPrism (V7.0) or Dotmatics Screening Ultra platform.
(§7) When present, paradoxical pERK induction is inferred from the negative % inhibition values observed in the pERK IC50 curves of a compound.

[2] = tested on: pERK in NCIH1755 cells (BRAF G469A); test: Phospho-ERK inhibition (AlphaLISA), NCIH1755; settings: for NCIH1755 pERK % Ymin: NCIH1755, value in parentheses
Description: as §1, §2, §3, §4, §5, §6, §7

[3] = tested on: pERK in IPC298 cells (NRAS-Q61L); test: Phospho-ERK inhibition (AlphaLISA), IPC298; settings: for IPC298 pERK % Ymin: IPC298, value in parentheses
Description: as §1, §2, §3, §4, §5, §6, §7

SW480 cells (KRAS G12D) = test: Proliferation inhibition (CellTiter-Glo), SW480; settings: SW480, 3 days, read-out: SW480 Prolif. EC50
Description: as §1
(§8) CellTiter-Glo® viability analysis was conducted on cells plated in 100 μL of complete RPMI-1640 growth medium in 96-well flat-bottomed white opaque plates (Greiner or Croning) at a density indicated in Table E (for each CCL, number of cells plated per well of a 96-well plate to perform the CellTiter-Glo® cell viability assay). The cell density in cells/cm^2 would correspond to cell number divided by the area of one well of a 96-well plate (0.32 cm^2). […]
(§9) After 3 days of incubation, the growth media were removed by aspiration and 60 μL of diluted CellTiter-Glo® reagent (10 μL CellTiter-Glo® reagent+50 μL of PBS) was added to each well. […] Luminescence signals were then acquired on a Synergy Neo2 plate reader (Biotek).
(§10) The effect of each compound dilution on the proliferation of cancer cell lines was expressed in % inhibition and calculated as follows. […]
as §6, with “proliferation” for “pERK signal”, “a EC50” for “an IC50”, “effect” for “inhibition”

[4] = tested on: pERK in SW620 cells (KRAS-G12V); test: Phospho-ERK inhibition (AlphaLISA), SW620; settings: for SW620 pERK % Ymin: SW620, value in parentheses
Description: as §1, §2, §3, §4, §5, §6, §7

[5] = tested on: NCIH2087 cells (BRAF L597V; KRAS Q61K); test: Proliferation inhibition (CellTiter-Glo), NCIH2087; settings: NCIH2087, 3 days, read-out: NCIH2087 Prolif. EC50
Description: as §1, §8, §9, §10
as §6, with “proliferation” for “pERK signal”, “a EC50” for “an IC50”, “effect” for “inhibition”

IC50 ([1]; Homo sapiens, MeWo) [nM]	IC50 ([2]; Homo sapiens, NCI-H1755) [nM]	IC50 ([3]; Homo sapiens, IPC-298) [nM]	EC50 (SW480 cells (KRAS G12D); Homo sapiens, 72 h) [nM]	IC50 ([4]; Homo sapiens, SW-620) [nM]	IC50 ([1]; Mewo) [nM]	IC50 ([2]; NCIH1755) [nM]	IC50 ([3]; IPC298) [nM]	EC50 (SW480 cells (KRAS G12D)) [nM]	IC50 ([4]; SW620) [nM]	SMILES	Mewo pERK % Ymin ([1]; Mewo) [%]	NCIH1755 pERK % Ymin [2] [%]	IPC298 pERK % Ymin [3] [%]	SW620 pERK % Ymin [4] [%]	EC50 ([5]; Homo sapiens, NCI-H2087, 72 h) [nM]	EC50 [5] [nM]
30 to 300	30 to 300	30 to 300	300 to 3000	30 to 300	–	–	–	–	–	Cc1ccc2c(Nc3cccc(Cl)c3F)nccc2c1NC(=O)c1csc2c(N)ncnc12 [Belvarafenib, reference compound]	−116	−79	−63	−151	< 30	–
–	–	–	–	–	30 to 300	< 30	30 to 300	300 to 3000	30 to 300	Nc1cccc2c1ncn2-c1ccc2ncnc(Nc3c(F)ccc(NS(=O)(=O)c4cccc(Cl)c4Cl)c3F)c2n1 [Example 99]	−7	−8	−2	−11	–	300 to 3000
–	–	–	–	–	30 to 300	30 to 300	30 to 300	300 to 3000	30 to 300	CC1(O)CCN(c2cccc3c2ncn3-c2ccc3ncnc(Nc4c(F)ccc(NS(=O)(=O)c5cccc(Cl)c5Cl)c4F)c3n2)CC1 [Example 524]	−5	−13	13	−4	–	< 30
